In patent US8158621B2, “Methods of treating or preventing autoimmune diseases with 2,4-pyrimidinediamine compounds” (Rigel Pharmaceuticals, Inc., priority 2002, dated 2012):

test system: bone marrow derived mast cells (BMMC); test: BMMC high cell density IgE activation: hexosaminidase; type: cell-based, mouse; details: high cell density; read-out: BMMC anti-IgE Hexos.
Experimental: After sensitizing, cells are counted, pelleted (1000 rpm, 5-10 minutes), and resuspended at 1-3×10^6 cells/ml in MT buffer. Add 100 ul of cell suspension to each well and 100 ul of compound dilutions. The final vehicle concentration is 0.5% DMSO. Incubate at 37° C. (5% CO2) for 1 hour. After 1 hour of compound treatment, stimulate cells with 6× stimulus (60 ng/ml DNP-BSA). Mix wells with the cells and allow plates to incubate at 37° C. (5% CO2) for one hour. After 1 hour incubation, pellet cells (10 minutes, 1000 RPM) and collect 200 ul per well of the supernatant, being careful not to disturb pellet, and transfer to a clean tube or 96-well plate. Place the supernatant plate on ice. During the 4-5 hour step (see next) perform the hexosiminidase assay. Resuspend cell pellet in 240 ul WEI-conditioned media containing 0.5% DMSO and corresponding concentration of compound. Incubate BMMC cells for 4-5 hours at 37° C. (5% CO2). After incubation, pellet cells (1000 RPM, 10 minutes) and collect 225 ul per well and place in −80° C. until ready to perform ELISAS. ELISAS are performed on appropriately diluted samples (determined empirically for each donor cell population so that the sample measurement falls within the standard curve) following the supplier's instructions.
Add 50 uL of BMMC cell supernatant (see above) to the hexoseaminidase substrate, place at 37° C. for 30 minutes and read the plate at 5, 10, 15, and 30 minutes on a spectrophotometer.

| SMILES | IC50 [µM] |
| --- | --- |
| COc1ccc(Nc2nc(Nc3cc(Cl)c(O)c(Cl)c3)ncc2F)cc1Cl [Compound R927044] | 4.28 |
| Oc1c(Cl)cc(Nc2ncc(F)c(Nc3ccc(OC(F)(F)F)c(Cl)c3)n2)cc1Cl [Compound R927046] | 2.4 |
| CCOC(=O)CCn1ncc2cc(Nc3ncc(F)c(Nc4ccc(OC)nc4OC)n3)ccc21 [Compound R935381] | 7.74 |
| CNC(=O)CCn1ncc2cc(Nc3ncc(F)c(Nc4ccc(Cl)cc4)n3)ccc21 [Compound R935382] | 0.2 |
| CCOC(=O)CCn1ncc2cc(Nc3ncc(F)c(Nc4ccc(F)c(F)c4)n3)ccc21 [Compound R935384] | > 10 |

test system: not listed separately; test: Mouse Reverse Passive Arthus reaction (RPA reaction); type: in vivo, C57BL/6 mice; details: oral, 10 mg/kg, pretreatment time 1.5 hrs
Experimental: In this model system, test compounds are administered at several timepoints prior to administration of Abs and Ags. A solution of rabbit anti-OVA IgG (50 μg in 25 μl/mouse) is injected intradermally, and immediately following is an intravenous injection of chicken egg albumin (20 mg/kg of body weight) in a solution containing 1% Evans blue dye. The degree of edema and hemorrhage is measured in the dorsal skin of C57BL/6 mice using the Evan's Blue dye as an indicator of local tissue damage. Purified polyclonal rabbit IgG is used as a control.
Pretreatment time, in which the test compounds are administered prior to Ab/Ag challenge, depends on the pharmacokinetic (PK) properties of each individual compound. Four hours after induction of Arthus reaction, mice are euthanized, and tissues are harvested for assessment of edema.

| SMILES | % inhibition to vehicle control Edema Size ± SEM [%] |
| --- | --- |
| Cc1ccc(S(=O)(=O)O)cc1.Cc1ccc(S(=O)(=O)O)cc1.OCCCn1ncc2cc(Nc3ncc(F)c(Nc4ccc(Cl)c(Cl)c4)n3)ccc21 [Compound R935451] | −14.4 ± 13.3 |

same assay, conditions: oral, 10 mg/kg, pretreatment time 1.5 hrs + 4 hours

| SMILES | Plasma Concentration ± SEM (ng/ml) Exposure = Pretreatment Time + 4 hours [ng/mL] |
| --- | --- |
| Cc1ccc(S(=O)(=O)O)cc1.Cc1ccc(S(=O)(=O)O)cc1.OCCCn1ncc2cc(Nc3ncc(F)c(Nc4ccc(Cl)c(Cl)c4)n3)ccc21 [Compound R935451] | 14.4 ± 1.8 |

same assay, conditions: oral, 30 mg/kg, pretreatment time 1.5 hrs

| SMILES | % inhibition to vehicle control Edema Size ± SEM [%] |
| --- | --- |
| Cc1ccc(S(=O)(=O)O)cc1.Cc1ccc(S(=O)(=O)O)cc1.OCCCn1ncc2cc(Nc3ncc(F)c(Nc4ccc(Cl)c(Cl)c4)n3)ccc21 [Compound R935451] | −30.6 ± 15.4 |

same assay, conditions: oral, 30 mg/kg, pretreatment time 1.5 hrs + 4 hours

| SMILES | Plasma Concentration ± SEM (ng/ml) Exposure = Pretreatment Time + 4 hours [ng/mL] |
| --- | --- |
| Cc1ccc(S(=O)(=O)O)cc1.Cc1ccc(S(=O)(=O)O)cc1.OCCCn1ncc2cc(Nc3ncc(F)c(Nc4ccc(Cl)c(Cl)c4)n3)ccc21 [Compound R935451] | 78.0 ± 32.0 |

same assay, conditions: oral, 50 mg/kg, pretreatment time 1 hrs

| SMILES | % inhibition to vehicle control Edema Size ± SEM [%] |
| --- | --- |
| COc1cc(Nc2ncc(F)c(Nc3ccc4c(c3)NC(=O)C(C)(C)O4)n2)cc(OC)c1.Cc1ccc(S(=O)(=O)O)cc1 [Compound R927070] | 56 ± 15 |

same assay, conditions: oral, 50 mg/kg, pretreatment time 1 hrs + 4 hours

| SMILES | Plasma Concentration ± SEM (ng/ml) Exposure = Pretreatment Time + 4 hours [ng/mL] |
| --- | --- |
| COc1cc(Nc2ncc(F)c(Nc3ccc4c(c3)NC(=O)C(C)(C)O4)n2)cc(OC)c1.Cc1ccc(S(=O)(=O)O)cc1 [Compound R927070] | 1755 ± 310 |

same assay, conditions: oral, 50 mg/kg, pretreatment time 1.5 hrs

| SMILES | % inhibition to vehicle control Edema Size ± SEM [%] |
| --- | --- |
| COc1cc(Nc2ncc(F)c(Nc3ccc4c(c3)NC(=O)C(C)(C)O4)n2)cc(OC)c1.Cc1ccc(S(=O)(=O)O)cc1 [Compound R927070] | 31.1 ± 17.29 |
| Cc1ccc(S(=O)(=O)O)cc1.Cc1ccc(S(=O)(=O)O)cc1.OCCCn1ncc2cc(Nc3ncc(F)c(Nc4ccc(Cl)c(Cl)c4)n3)ccc21 [Compound R935451] | 74.9 ± 7.5 |

same assay, conditions: oral, 50 mg/kg, pretreatment time 1.5 hrs + 4 hours

| SMILES | Plasma Concentration ± SEM (ng/ml) Exposure = Pretreatment Time + 4 hours [ng/mL] |
| --- | --- |
| Cc1ccc(S(=O)(=O)O)cc1.Cc1ccc(S(=O)(=O)O)cc1.OCCCn1ncc2cc(Nc3ncc(F)c(Nc4ccc(Cl)c(Cl)c4)n3)ccc21 [Compound R935451] | 385.0 ± 149.4 |

same assay, conditions: oral, 100 mg/kg, pretreatment time 1 hrs

| SMILES | % inhibition to vehicle control Edema Size ± SEM [%] |
| --- | --- |
| COc1cc(Nc2ncc(F)c(Nc3ccc4c(c3)NC(=O)C(C)(C)O4)n2)cc(OC)c1.Cc1ccc(S(=O)(=O)O)cc1 [Compound R927070] | 61 ± 14 |

same assay, conditions: oral, 100 mg/kg, pretreatment time 1 hrs + 4 hours

| SMILES | Plasma Concentration ± SEM (ng/ml) Exposure = Pretreatment Time + 4 hours [ng/mL] |
| --- | --- |
| COc1cc(Nc2ncc(F)c(Nc3ccc4c(c3)NC(=O)C(C)(C)O4)n2)cc(OC)c1.Cc1ccc(S(=O)(=O)O)cc1 [Compound R927070] | 2851 ± 712 |

same assay, conditions: oral, 100 mg/kg, pretreatment time 1.5 hrs

| SMILES | % inhibition to vehicle control Edema Size ± SEM [%] |
| --- | --- |
| COc1cc(Nc2ncc(F)c(Nc3ccc4c(c3)NC(=O)C(C)(C)O4)n2)cc(OC)c1.Cc1ccc(S(=O)(=O)O)cc1 [Compound R927070] | 55.5 ± 7.7 |
| Cc1ccc(S(=O)(=O)O)cc1.Cc1ccc(S(=O)(=O)O)cc1.OCCCn1ncc2cc(Nc3ncc(F)c(Nc4ccc(Cl)c(Cl)c4)n3)ccc21 [Compound R935451] | 77.1 ± 8.0 |

same assay, conditions: oral, 100 mg/kg, pretreatment time 1.5 hrs + 4 hours

| SMILES | Plasma Concentration ± SEM (ng/ml) Exposure = Pretreatment Time + 4 hours [ng/mL] |
| --- | --- |
| COc1cc(Nc2ncc(F)c(Nc3ccc4c(c3)NC(=O)C(C)(C)O4)n2)cc(OC)c1.Cc1ccc(S(=O)(=O)O)cc1 [Compound R927070] | 4095 ± 1187 |
| Cc1ccc(S(=O)(=O)O)cc1.Cc1ccc(S(=O)(=O)O)cc1.OCCCn1ncc2cc(Nc3ncc(F)c(Nc4ccc(Cl)c(Cl)c4)n3)ccc21 [Compound R935451] | 1459.0 ± 444.4 |

test system: cultured human mast cells (CHMC); test: CHMC low cell density IgE activation: tryptase assay; type: cell-based; details: low cell density; read-out: CHMC anti-IgE Tryptase
In short: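 CHMC resuspended in pre-warmed MT buffer at 1000-1500 cells/well (donor-dependent) and preincubated 1 hr at 37° C, then stimulated with anti-IgE for 30 min at 37° C; unstimulated wells got MT alone. Supernatant tryptase activity read with tryptase substrate after 30 min at room temperature.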

| SMILES | IC50 [µM] |
| --- | --- |
| COc1cc(Nc2ncc(F)c(Nc3ccc4c(c3)NC(=O)C(C)(C)O4)n2)cc(OC)c1.Cc1ccc(S(=O)(=O)O)cc1 [Compound R927070] | 0.054 |
| Cc1ccc(S(=O)(=O)O)cc1.Cc1ccc(S(=O)(=O)O)cc1.OCCCn1ncc2cc(Nc3ncc(F)c(Nc4ccc(Cl)c(Cl)c4)n3)ccc21 [Compound R935451] | > 10 |

test system: cultured human mast cells (CHMC); test: CHMC low cell density ionomycin activation: tryptase assay; type: cell-based; details: low cell density; read-out: CHMC Ionomycin Tryptase

| SMILES | IC50 [µM] |
| --- | --- |
| COc1ccc(Nc2nc(Nc3cc(Cl)c(O)c(Cl)c3)ncc2F)cc1Cl [Compound R927044] | > 10 |
| Oc1c(Cl)cc(Nc2ncc(F)c(Nc3ccc(OC(F)(F)F)c(Cl)c3)n2)cc1Cl [Compound R927046] | > 10 |
| COc1cc(Nc2ncc(F)c(Nc3ccc4c(c3)NC(=O)C(C)(C)O4)n2)cc(OC)c1.Cc1ccc(S(=O)(=O)O)cc1 [Compound R927070] | 5.24 |
| CCOC(=O)CCn1ncc2cc(Nc3ncc(F)c(Nc4ccc(OC)nc4OC)n3)ccc21 [Compound R935381] | > 10 |
| CNC(=O)CCn1ncc2cc(Nc3ncc(F)c(Nc4ccc(Cl)cc4)n3)ccc21 [Compound R935382] | > 10 |
| CCOC(=O)CCn1ncc2cc(Nc3ncc(F)c(Nc4ccc(F)c(F)c4)n3)ccc21 [Compound R935384] | > 10 |
| Cc1ccc(S(=O)(=O)O)cc1.Cc1ccc(S(=O)(=O)O)cc1.OCCCn1ncc2cc(Nc3ncc(F)c(Nc4ccc(Cl)c(Cl)c4)n3)ccc21 [Compound R935451] | > 10 |
